Values of other authors as cited in patent US11219621B2, “Methods for treating immunodeficiency disease” (X4 Pharmaceuticals, Inc., priority 2015, dated 2022).

Biological target: T1, CCR5 (Homo sapiens, UniProt P51681)
T1 construct: expressed in transfected cells
Conditions: cited from earlier work

T1 sequence (P51681 whole entry): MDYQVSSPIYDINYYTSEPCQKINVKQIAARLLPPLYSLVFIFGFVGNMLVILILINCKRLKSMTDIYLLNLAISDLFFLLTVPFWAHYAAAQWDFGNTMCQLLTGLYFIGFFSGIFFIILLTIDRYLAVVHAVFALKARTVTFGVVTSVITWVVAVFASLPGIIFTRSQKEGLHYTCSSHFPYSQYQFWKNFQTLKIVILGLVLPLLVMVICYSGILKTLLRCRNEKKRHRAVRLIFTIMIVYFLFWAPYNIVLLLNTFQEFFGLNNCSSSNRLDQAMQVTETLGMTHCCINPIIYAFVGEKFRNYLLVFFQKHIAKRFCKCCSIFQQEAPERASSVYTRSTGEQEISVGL

For NCCCCN(Cc1nc2ccccc2[nH]1)[C@H]1CCCc2cccnc21 [X4P-001], the IC50 (CCR5, HEK293F-CCR5, RANTES/CCL5, read-out: IC50 AMD11070) is given as greater than 50 µM and the “Inhibitory effect on RANTES mediated calcium flux (CCR5)” value is given as “little or no inhibitory effect”.
